Experimental findings from US12590124B2, “Peptide with neutralizing activity against severe acute respiratory syndrome coronavirus 2” (CAREGEN CO, LTD., priority 2020, dated 2026) are described below.

Where two headings read alike, the source gives them in different places. Where no end group is shown, it is not given here.

This assay deals with SARS-CoV-2. The conditions noted are these: 1 h.

Take RSYMTTHHEQF [SEQ ID NO: 1, RSYMTTHHEQF]: the Inhibition rate by setting is: (2.5 mM) 21%; (10 mM) 100%.

Consider KFNRRHH [SEQ ID NO: 2, KFNRRHH], for which the Inhibition rate reads like this: (2.5 mM) 51%; (10 mM) 96%.

Consider “WVPYQARVPYPR [SEQ ID NO: 4, WVPYQARVPYPR]”, for which the Inhibition rate is, setting by setting: (2.5 mM) 55%; (10 mM) 98%.

In turn, “KYLLVHRPYYRR [SEQ ID NO: 3, KYLLVHRPYYRR]” displayed an Inhibition rate (2.5 mM) of 98% and an Inhibition rate (10 mM) of 98%.
